The assay deals with T1, human DGAT1 (Homo sapiens, UniProt O75907).
T1 construct: made in house; host or cells: Sf9 insect cells (recombinant baculovirus); membrane fraction used
T1 sequence (O75907 1-488): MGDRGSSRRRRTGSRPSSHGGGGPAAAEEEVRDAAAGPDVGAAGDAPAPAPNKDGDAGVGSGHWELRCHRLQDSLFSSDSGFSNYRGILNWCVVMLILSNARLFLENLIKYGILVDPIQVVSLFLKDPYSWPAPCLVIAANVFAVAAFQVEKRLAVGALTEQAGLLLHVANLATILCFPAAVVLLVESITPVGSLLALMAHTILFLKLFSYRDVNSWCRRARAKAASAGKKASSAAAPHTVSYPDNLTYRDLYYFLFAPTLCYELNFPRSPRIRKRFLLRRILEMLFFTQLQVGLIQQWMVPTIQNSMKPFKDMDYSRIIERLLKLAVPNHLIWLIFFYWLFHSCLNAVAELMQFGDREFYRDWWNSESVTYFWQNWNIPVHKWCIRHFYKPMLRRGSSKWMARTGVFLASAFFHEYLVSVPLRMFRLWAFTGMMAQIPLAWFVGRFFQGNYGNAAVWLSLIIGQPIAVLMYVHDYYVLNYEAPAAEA
The experiment in a line: Human Enzyme Assay (DGAT1 inhibition). Format: biochemical. Particulars: human DGAT1 expressed in insect cell (sf9) membranes; 14C oleoyl coenzyme A, 30 minutes at room temperature. The method, then:
The in vitro assay to identify DGAT1 inhibitors uses human DGAT1 expressed in insect cell membranes as the enzyme source (Proc. Natl. Acad. Sci. 1998, 95, 13018-13023). Briefly, sf9 cells were infected with recombinant baculovirus containing human DGAT1 coding sequences and harvested after 48 h. Cells were lysed by sonication and membranes isolated by centrifuging at 28000 rpm for 1 h at 4° C. on a 41% sucrose gradient. The membrane fraction at the interphase was collected, washed, and stored in liquid nitrogen.
DGAT1 activity was assayed by a modification of the method described by Coleman (Methods in Enzymology 1992, 209, 98-102). Compound at 1-10 μM was incubated with 0.4 μg membrane protein, 5 mM MgCl2, and 100 μM 1,2 dioleoyl-sn-glycerol in a total assay volume of 200 μl in plastic tubes. The reaction was started by adding ^14C oleoyl coenzyme A (30 μM final concentration) and incubated at room temperature for 30 minutes. The reaction was stopped by adding 1.5 mL 2-propanol:heptane:water (80:20:2). Radioactive triolein product was separated into the organic phase by adding 1 mL heptane and 0.5 mL 0.1 M carbonate buffer pH 9.5. DGAT1 activity was quantified by counting aliquots of the upper heptane layer by liquid scintillography.

A word on the IC50: it is the concentration that gives 50% inhibition. Low readings indicate greater potency in that assay, high ones weaker potency in that assay.

`O=C(Nc1ccc(S(=O)(=O)C2CCC(C(=O)O)CC2)cc1)c1nnc(Nc2cc(F)c(F)c(F)c2)o1` (mixture of isomers) [Example 1, 4-[4-[[5-[(3,4,5-Trifluorophenyl)amino]1,3,4-oxadiazole-2-carbonyl]amino]phenyl]sulfonylcyclohexane-1-carboxylic acid] displayed an IC50 of 0.29 µM.

For the origin of these results see patent US20100173958A1, “COMPOUNDS FOR THE INHIBITION OF DGAT1 ACTIVITY” (priority 2006, published 2010).
